Measured values: PMC12718261, “New Fluorescent Synthetic Retinoids as Potential RAR Agonists with Anticancer, Molecular Docking and ADME Assessments” (Journal of Fluorescence, 2025)
Several values for one entry are separate records, joined by “and”; a condition that tells them apart may be missing. Equal values may be shown once.

Columns and labels:
Format in all cases: cell-based
[1] = system: WI-38 normal human fibroblast cells; assay: MTT cytotoxicity assay on normal fibroblasts; conditions: WI-38 normal fibroblast cells, 24 h, mean ± SEM
Description: (§1) The antiproliferation and cytotoxicity were assessed using 3-(4,5-dimethylthiazol-2-yl)−2,5-diphenyltetrazolium bromide (MTT, Serva) colorimetric assay. All tested cancer cell lines were seeded at a density of 20,000 cells per well in 96-well plates and allowed to adhere overnight. The attached cells were treated with five serial dilutions (100, 50, 5, 0.5, and 0.1 μM) in triplicate. These concentrations were prepared by diluting the stock solutions with serum-free culture media. The negative control cells were those treated with 0.1% DMSO solvent alone. The treated cells were handled in reduced light and maintained under standard culture growth conditions for 24 h. After the incubation period, MTT powder was prepared as a stock solution (5 mg/mL), and 20 μL of the MTT working reagent (final concentration 0.5 mg/mL) was added to each well. This was followed by incubation with MTT reagent for 4 h in a humidified atmosphere (37 °C, 5% CO2) with subsequent addition of 150 μL of DMSO solubilizing solvent and incubation for 20 min. The absorbance of solubilized violet formazan crystals was measured at 570 nm with a Biotek 800 TS microplate reader. IC50 was calculated as the concentration of retinoid that produced 50% cell growth inhibition. For cytotoxicity assessment, WI-38 normal human fibroblast cells were used for the calculation of SI, which is the ratio of IC50 retinoid (WI-38)/IC50 retinoid (cancer cell line).

Caco-2 = assay: MTT anti-proliferative assay; conditions: Homo sapiens; Caco-2, MTT, 24 h, mean ± SEM
Description: as §1

HCT-116 = assay: MTT anti-proliferative assay; conditions: Homo sapiens; HCT-116, MTT, 24 h, mean ± SEM
Description: as §1

HepG-2 = assay: MTT anti-proliferative assay; conditions: Homo sapiens, HepG2; HepG-2, MTT, 24 h, mean ± SEM
Description: as §1

MCF-7 = assay: MTT anti-proliferative assay; conditions: Homo sapiens, MCF7; MCF-7, MTT, 24 h, mean ± SEM
Description: as §1

MDA-MB231 = assay: MTT anti-proliferative assay; conditions: Homo sapiens, MDA-MB-231, 24 h, mean ± SEM
Description: as §1

PC-3 = assay: MTT anti-proliferative assay; conditions: Homo sapiens; PC-3, MTT, 24 h, mean ± SEM
Description: as §1

Caco-2 cancer cells [2] = assay: Apoptosis assay Annexin V/PI flow cytometry; conditions: Caco-2, IC50 dose, 24 h, AV/PI
Description: The standard protocol used in HSBR was performed. […] Cells were rinsed with 1 mL of binding buffer; the cells were again suspended in phosphate-buffered saline (PBS) (Lonza). 100 µL of cell suspension was incubated with 1 µL of FITC-labeled Annexin-V and 5 µL of PI for 15 min at 4 °C in the dark. The suspension was then mixed with 400 µL of ice-cold binding buffer, and each sample's apoptotic cells were analyzed using a Cytoflex flow cytometer (Beckman Coulter, USA), and CytExpert software (version 2.4.0.28) was employed for data analysis.

Caco-2 cancer cells [3] = assay: Cell cycle assay PI staining flow cytometry; conditions: Caco-2, IC50 dose, 24 h
Description: The standard protocol used in HSBR was performed. […] Cells were concentrated at 1500 xg and suspended in 50 μg/ml propidium iodide (PI) staining solution and 20 µg/ml RNaseA to identify cells with a sub-G1 DNA content. Cytoflex flow cytometer (Beckman Coulter, USA) was used, and CytExpert software (version 2.4.0.28) was employed for data analysis. The gating strategy used to eliminate doublets depends on plotting the population against a 2D contour plot in four quadrants, referred to as Q1(LL), Q2 (LR), Q3 (UL), and Q4 (UR), that illustrates the spread of the Annexin-FITC-H core cell population against PI PE-H.

[4] = system: CRABPI gene in Caco-2 cells; assay: Gene expression RT-qPCR; conditions: Caco-2, IC50 dose, 24 h, relative to 0.1% DMSO, normalized to GAPDH
Description: (§2) The gene expression analysis was performed using real-time quantitative PCR (RT-qPCR), as previously documented. After incubation, cells were harvested, and total RNA was extracted using the Favor-PrepTM Blood/Cultured Cell Total RNA Purification Mini kit (Favorgen Biotech Corp., Ping-Tung, Taiwan). The purified RNA was then reverse transcribed into the first-strand cDNA using the Revert Aid First-Strand cDNA Synthesis Kit (Thermo Scientific, Waltham, MA, USA). All qPCR reactions were carried out using the […] SYBR® Green qPCR Kit (Willowfort, Nottingham, UK). Differential gene expression was performed using the 2ˆ^−ΔΔCT method utilizing GAPDH as a reference gene.

[5] = system: CRABPII gene in Caco-2 cells; assay: Gene expression RT-qPCR; conditions: Caco-2, IC50 dose, 24 h, relative to 0.1% DMSO, normalized to GAPDH
Description: as §2

[6] = system: Caspase-3 gene in Caco-2 cells; assay: Gene expression RT-qPCR; conditions: Caco-2, IC50 dose, 24 h, relative to 0.1% DMSO, normalized to GAPDH
Description: as §2

[7] = system: Cyt-C gene in Caco-2 cells; assay: Gene expression RT-qPCR; conditions: Caco-2, IC50 dose, 24 h, relative to 0.1% DMSO, normalized to GAPDH
Description: as §2

[8] = system: RAR-γ gene in Caco-2 cells; assay: Gene expression RT-qPCR; conditions: Caco-2, IC50 dose, 24 h, relative to 0.1% DMSO, normalized to GAPDH
Description: as §2

[9] = system: RAR-β gene in Caco-2 cells; assay: Gene expression RT-qPCR; conditions: Caco-2, IC50 dose, 24 h, relative to 0.1% DMSO, normalized to GAPDH
Description: The gene expression analysis was performed using real-time quantitative PCR (RT-qPCR), as previously documented [38]. After incubation, cells were harvested, and total RNA was extracted using the Favor-PrepTM Blood/Cultured Cell Total RNA Purification Mini kit (Favorgen Biotech Corp., Ping-Tung, Taiwan). The purified RNA was then reverse transcribed into the first-strand cDNA using the Revert Aid First-Strand cDNA Synthesis Kit (Thermo Scientific, Waltham, MA, USA). […] SYBR® Green qPCR Kit (Willowfort, Nottingham, UK). Differential gene expression was performed using the 2ˆ^−ΔΔCT method utilizing GAPDH as a reference gene [39].

[10] = system: total ATPase in Caco-2 cells; assay: Total ATPase activity, malachite green colorimetric; conditions: Caco-2, IC50 dose, 24 h; 0.1% DMSO control normalized to 100%
Description: (§3) The total activity of ATPase and calcium-independent ATPase activity was quantified colorimetrically as described by our previous protocol. […] The inorganic phosphate (Pi) liberated after the hydrolysis of ATP by ATPase enzymes was complexed into a colored product in one step after the addition of a mixed reagent containing malachite green, ammonium molybdate, and polyvinyl alcohol (2:1:1). The intensity of absorbance at 630 nm was measured using the BioTek 800 TS absorbance plate reader (USA) and was directly proportional to the quantity of liberated Pi. In order to eliminate any color due to the non-enzymatic hydrolysis of ATP, control reactions were made using only ATP in the reaction buffer, and the absorbance intensity was then subtracted from the readings of the samples and standards.

[11] = system: calcium-independent ATPases in Caco-2 cells; assay: Calcium-independent ATPase activity, malachite green colorimetric; conditions: Caco-2, IC50 dose, 24 h; 0.1% DMSO control normalized to 100%
Description: as §3

IL-10 in Caco-2 cells = assay: Intracellular IL-10 ELISA; conditions: Caco-2, IC50 dose, 24 h, vs DMSO control
Description: For IL-10. Moreover, IL-6 measurements and cell pellets were lysed using RIPA buffer, and the total lysate was collected. The total protein was estimated to use commercially available ELISA kits as per the manufacturer’s instructions. ELISA plates were coated and used for analysis according to the previously used protocol using capture antibody (IL-6, Cat. No.: RAB0307 [57] and IL-10, Cat. No.: RAB1060 [58]), followed by blocking using 5% BSA in PBS-Tween buffer for 1 h. After incubating with samples for 2 h, a secondary […] antibody was added and kept for incubation for 2 h. Streptavidin-HRP reagent was then added to the plates, followed by the addition of TMB solution. Finally, the reaction was stopped using 2 N H2SO4, and the color was measured using the BioTek 800 TS absorbance plate reader (USA) at 450 nm wavelengths, and the protein was quantified.

[12] = system: different cancer cell lines; assay: MTT anti-proliferative assay, whole panel statements; conditions: 24 h, read-out: IC50 across different cancer cell lines
Description: as §1, with “For cytotoxicity assessment, WI-38 normal human fibroblast cells were used for the calculation of SI, which is the ratio of IC50 retinoid (WI-38)/IC50 retinoid (cancer cell line).” left out

[13] = system: RAR-α, RAR-β, RAR-γ proteins in Caco-2 cells; assay: Western blotting of RAR proteins; conditions: Caco-2, IC50 dose, 24 h, normalized to β-actin
Description: Using the previously outlined protocol, the western blot technique was used to determine the expression of RAR-α (Cat. No. E6Z6 K, cell signaling, USA), RAR-β (Cat. No. PP-H4338-00, R&D systems, USA) and RAR- γ (Cat. No. D3 A4, cell signaling, USA) in Caco-2 cells. […] Following incubation, floating adhered cells were separated and lysed. The Caco-2 cell lysate was immediately collected, subjected to sonication, and centrifuged for 15 min at 12,000 × g. The total soluble protein content was measured colorimetrically using the PierceTM 660 nm Assay (Thermo Scientific, Waltham, MA, USA) after the resultant supernatant was separated. The Gel documentation system (Geldoc-it, UVP, England) was applied for data analysis using Totallab analysis software (Ver.1.0.1) (ww.totallab.com).

Compound | IC50 [1] [µM] | IC50 (Caco-2) [µM] | IC50 (HCT-116) [µM] | IC50 (HepG-2) [µM] | IC50 (MCF-7) [µM] | IC50 (MDA-MB231) [µM] | IC50 (PC-3) [µM] | % Early apoptotic cells (LR) (Caco-2 cancer cells [2]) | % Late apoptotic cells (UL) (Caco-2 cancer cells [2]) [%] | % Necrotic cells (UR) (Caco-2 cancer cells [2]) | % Viable cells (LL) (Caco-2 cancer cells [2]) [%] | % G0-G1 (Caco-2 cancer cells [3]) [%] | % G2M (Caco-2 cancer cells [3]) [%] | % S (Caco-2 cancer cells [3]) [%] | % SubG0-G1 (Caco-2 cancer cells [3]) | CRABPI gene expression fold change [4] [fold] | caspase-3 gene expression fold change [6] | Cyt-C gene expression fold change [7] | total ATPase activity [10] [%] | ca+2-independent ATPase activity [11] [%] | further results
CC1=C(/C=C/C(C)=C/C=C/C(C)=C/C(=O)O)C(C)(C)CCC1 [ATRA, all-trans-retinoic acid, reference compound] | 46.9 ± 2.8 | 11.4 ± 0.3 | 38.8 ± 0.9 | 16 ± 1.3 | 4.93 ± 0.4 | 10.4 ± 0.2 | 2.21 ± 0.1 | 1.20 ± 0.1% | 0.03 | 98.74% and 98.74 ± 8.7 % | 0.02 | 17.37 ± 6.1 | 3.05 ± 0.7 | 5.39 ± 1.4 | 74.63 ± 5.8 % | 1.2 | 1.6 ± 0.1 fold | 7.7 ± 0.3 fold | 42.2 | 39.4 | CRABPII gene expression fold change [5]: no effect; RAR-γ gene expression fold change [8]: 4.1 ± 0.2 fold; RAR-β gene expression fold change [9]: 35.3 ± 1.6 fold
COC(=O)c1ccc2cc(-c3ccc4c(c3)CCCN4)ccc2c1 [Compound 3a, Methyl 6-(1,2,3,4-tetrahydroquinolin-6-yl)−2-naphthoate] | 39.2 ± 4.7 | 9.58 ± 1.1 | 10.2 ± 3.8 | 6.37 ± 1 | 13.8 ± 2.4 | 2.33 ± 0.6 | 18.9 ± 4 | 47.37 ± 3.9 % | 0.30 | 51.38 ± 3.6 % | 0.95 | 23.90 ± 8.4 | 2.41 ± 0.3 | 4.13 ± 1.2 | 70.02% and 70.02 ± 4.7 % | 2.4 ± 0.1 | 8.5 ± 0.4 fold | did not show any overexpression | 43.9 | 40.0 | RAR-γ gene expression fold change [8]: 4.5 ± 0.2 fold; intracellular IL-10 level change (IL-10 in Caco-2 cells): additional significant reduction
COC(=O)c1ccc2cc(-c3ccc4c(c3)CCCO4)ccc2c1 [Compound 3b, Methyl 6-(chroman-6-yl)−2-naphthoate] | 29.2 ± 2.1 | 14.4 ± 0.36 | 52.9 ± 4.3 | 12 ± 2.6 | 12.2 ± 3.2 | 2.09 ± 0.1 | 4.6 ± 1.7 | 60.06 ± 5.4 % | 0.49 | 37.78% and 37.78 ± 2.7 % | 1.68 ± 0.1 | 19.65 ± 2.7 | 1.74 ± 0.1 | 3.31 ± 1.1 | 75.62% and 75.62 ± 7.4 % | 9.9 ± 0.4 | did not show any significant increase | did not show any overexpression | 41 | 36.2 | IC50 [12]: ≤ 50 µM; RAR-γ gene expression fold change [8]: 2.4 ± 0.1 fold
O=C(O)c1ccc2cc(-c3ccc4c(c3)CCCN4)ccc2c1 [Compound 4a, 6-(1,2,3,4-tetrahydroquinolin-6-yl)−2-naphthoic acid] | 43.7 ± 4.2 | 47.3 ± 6.2 | 133 ± 6.8 | 53 ± 4.9 | 64.8 ± 5.4 | 2.42 ± 1.3 | 2.78 ± 0.3 | 23.44% and 23.44 ± 2.3 % | 0.37 | 75.13% and 75.13 ± 6.8 % | 1.06 ± 0.1 | 18.77 ± 4.8 | 2.26 ± 0.4 | 3.53 ± 1.3 | 75.83% and 75.83 ± 6.4 % |  | did not show any significant increase | did not show any overexpression | 23.7 | 13.9 | RAR protein expression (western blot) [13]: overexpression of all RARs; intracellular IL-10 level change (IL-10 in Caco-2 cells): did not show any significant reduction
